Reference: patent US20230074545A1, “TREATMENT OF CANCER WITH CDK12/13 INHIBITORS” (Kinnate Biopharma Inc., priority 2019, published 2023)

Legend:
Assay in all cases: Radiometric kinase panel
Assay type in all cases: biochemical
ALK = biological target: T1, ALK (Homo sapiens, UniProt Q9UM73)
T1 construct: either as full-length or enzymatically active fragments; purchased ProQinase GmbH (Reaction Biology)
Procedure, shortened: (§1)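 Activity was measured radiometrically from [gamma-33P]-ATP incorporation into substrate. The kinases were recombinant human GST- or His-tagged proteins, full-length or active fragments, expressed in Sf9 or E. coli. Compound in 10% DMSO was added before the enzyme/substrate mix, which started the reaction.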

BMPR1A = biological target: T2, BMPR1A (Homo sapiens, UniProt P36894)
T2 construct: either as full-length or enzymatically active fragments; purchased ProQinase GmbH (Reaction Biology)
Procedure, shortened: as §1

CAMKID = biological target: T3, CAMKID (Homo sapiens, UniProt Q8IU85)
T3 construct: purchased ProQinase GmbH (Reaction Biology)
Procedure, shortened: as §1

CDK13/CycK = biological target: T4, CDK13/CycK (Homo sapiens, UniProt Q14004)
T4 construct: either as full-length or enzymatically active fragments; purchased ProQinase GmbH (Reaction Biology)
Procedure, shortened: as §1

CDK2/CycA2 = biological target: T5, CDK2/CycA2 (Homo sapiens, UniProt P24941)
T5 construct: either as full-length or enzymatically active fragments; purchased ProQinase GmbH (Reaction Biology); host or cells: Sf9 insect cells or E. coli
Procedure, shortened: as §1

CDK6/CycD1 = biological target: T6, CDK6/CycD1 (Homo sapiens, UniProt Q00534)
T6 construct: purchased ProQinase GmbH (Reaction Biology); host or cells: Sf9 insect cells or E. coli (not specified per kinase)
Procedure, shortened: as §1

CDK6/CycD3 = biological target: T7, CDK6/CycD3 (Homo sapiens, UniProt Q00534)
T7 construct: either as full-length or enzymatically active fragments; purchased ProQinase GmbH (Reaction Biology); host or cells: Sf9 insect cells or E. coli
Procedure, shortened: as §1

CDK9/CycT1 = biological target: T8, CDK9/CycT1 (Homo sapiens, UniProt P50750)
T8 construct: either as full-length or enzymatically active fragments; purchased ProQinase GmbH (Reaction Biology)
Procedure, shortened: as §1

CK1epsilon = biological target: T9, CK1epsilon (Homo sapiens, UniProt P49674)
T9 construct: either as full-length or enzymatically active fragments; purchased ProQinase GmbH (Reaction Biology)
Procedure, shortened: as §1

CK1gamma2 = biological target: T10, CK1gamma2 (Homo sapiens, UniProt P78368)
T10 construct: purchased ProQinase GmbH (Reaction Biology)
Procedure, shortened: as §1

CK1gamma3 = biological target: T11, CK1gamma3 (Homo sapiens, UniProt Q9Y6M4)
T11 construct: either as full-length or enzymatically active fragments; purchased ProQinase GmbH (Reaction Biology)
Procedure, shortened: as §1

DNAPK = biological target: T12, DNAPK (Homo sapiens, UniProt P78527)
T12 construct: purchased ProQinase GmbH (Reaction Biology); host or cells: Sf9 insect cells or E. coli (not specified per kinase)
Procedure, shortened: as §1

DYRK3 = biological target: T13, DYRK3 (Homo sapiens, UniProt O43781)
T13 construct: either as full-length or enzymatically active fragments; purchased ProQinase GmbH (Reaction Biology)
Procedure, shortened: as §1

EPHB2 = biological target: T14, EPHB2 (Homo sapiens, UniProt P29323)
T14 construct: purchased ProQinase GmbH (Reaction Biology); host or cells: Sf9 insect cells or E. coli (not specified per kinase)
Procedure, shortened: as §1

GRK3 = biological target: T15, GRK3 (Homo sapiens, UniProt P35626)
T15 construct: either as full-length or enzymatically active fragments; purchased ProQinase GmbH (Reaction Biology)
Procedure, shortened: as §1

LYN = biological target: T16, LYN (Homo sapiens, UniProt P07948)
T16 construct: either as full-length or enzymatically active fragments; purchased ProQinase GmbH (Reaction Biology)
Procedure, shortened: as §1

MAP4K5 = biological target: T17, MAP4K5 (Homo sapiens, UniProt Q9Y4K4)
T17 construct: purchased ProQinase GmbH (Reaction Biology)
Procedure, shortened: as §1

MKNK1 = biological target: T18, MKNK1 (Homo sapiens, UniProt Q9BUB5)
T18 construct: purchased ProQinase GmbH (Reaction Biology)
Procedure, shortened: as §1

NEK1 = biological target: T19, NEK1 (Homo sapiens, UniProt Q96PY6)
T19 construct: purchased ProQinase GmbH (Reaction Biology)
Procedure, shortened: as §1

NIK = biological target: T20, NIK (Homo sapiens, UniProt Q99558)
T20 construct: purchased ProQinase GmbH (Reaction Biology)
Procedure, shortened: as §1

PAK4 = biological target: T21, PAK4 (Homo sapiens, UniProt O96013)
T21 construct: either as full-length or enzymatically active fragments; purchased ProQinase GmbH (Reaction Biology)
Procedure, shortened: as §1

PKA = biological target: T22, PKA (Homo sapiens, UniProt P17612)
T22 construct: either as full-length or enzymatically active fragments; purchased ProQinase GmbH (Reaction Biology); host or cells: Sf9 insect cells or E. coli
Procedure, shortened: as §1

PKCbeta1 = biological target: T23, PKCbeta1 (Homo sapiens, UniProt P05771)
T23 construct: either as full-length or enzymatically active fragments; purchased ProQinase GmbH (Reaction Biology)
Procedure, shortened: as §1

PKCtheta = biological target: T24, PKCtheta (Homo sapiens, UniProt Q04759)
T24 construct: purchased ProQinase GmbH (Reaction Biology); host or cells: Sf9 insect cells or E. coli (not specified per kinase)
Procedure, shortened: as §1

PRK2 = biological target: T25, PRK2 (Homo sapiens, UniProt Q16513)
T25 construct: either as full-length or enzymatically active fragments; purchased ProQinase GmbH (Reaction Biology)
Procedure, shortened: as §1

RAF1 YDYD = biological target: T26, RAF1 YDYD (Homo sapiens, UniProt P04049, Y340D/Y341D)
T26 construct: either as full-length or enzymatically active fragments; purchased ProQinase GmbH (Reaction Biology); host or cells: Sf9 insect cells or E. coli (not specified per kinase)
Procedure, shortened: as §1

SLK = biological target: T27, SLK (Homo sapiens, UniProt Q9H2G2)
T27 construct: either as full-length or enzymatically active fragments; purchased ProQinase GmbH (Reaction Biology)
Procedure, shortened: as §1

STK25 = biological target: T28, STK25 (Homo sapiens, UniProt O00506)
T28 construct: either as full-length or enzymatically active fragments; purchased ProQinase GmbH (Reaction Biology)
Procedure, shortened: as §1

TAOK3 = biological target: T29, TAOK3 (Homo sapiens, UniProt Q9H2K8)
T29 construct: either as full-length or enzymatically active fragments; purchased ProQinase GmbH (Reaction Biology)
Procedure, shortened: as §1

ZAK = biological target: T30, ZAK (Homo sapiens, UniProt Q9NYL2)
T30 construct: either as full-length or enzymatically active fragments; purchased ProQinase GmbH (Reaction Biology)
Procedure, shortened: as §1

T18 sequence (Q9BUB5 whole entry): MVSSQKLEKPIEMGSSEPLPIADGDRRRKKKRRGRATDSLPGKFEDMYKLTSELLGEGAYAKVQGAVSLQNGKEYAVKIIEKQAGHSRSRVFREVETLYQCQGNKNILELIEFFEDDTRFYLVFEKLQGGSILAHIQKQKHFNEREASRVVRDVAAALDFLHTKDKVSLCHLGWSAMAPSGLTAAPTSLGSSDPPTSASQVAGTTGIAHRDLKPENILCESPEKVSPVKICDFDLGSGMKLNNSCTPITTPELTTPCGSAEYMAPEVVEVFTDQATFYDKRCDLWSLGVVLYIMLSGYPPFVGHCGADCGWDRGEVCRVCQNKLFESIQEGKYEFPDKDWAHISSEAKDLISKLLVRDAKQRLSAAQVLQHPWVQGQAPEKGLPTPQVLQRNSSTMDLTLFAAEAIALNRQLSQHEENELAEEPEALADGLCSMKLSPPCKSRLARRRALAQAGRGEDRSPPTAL
T19 sequence (Q96PY6 whole entry): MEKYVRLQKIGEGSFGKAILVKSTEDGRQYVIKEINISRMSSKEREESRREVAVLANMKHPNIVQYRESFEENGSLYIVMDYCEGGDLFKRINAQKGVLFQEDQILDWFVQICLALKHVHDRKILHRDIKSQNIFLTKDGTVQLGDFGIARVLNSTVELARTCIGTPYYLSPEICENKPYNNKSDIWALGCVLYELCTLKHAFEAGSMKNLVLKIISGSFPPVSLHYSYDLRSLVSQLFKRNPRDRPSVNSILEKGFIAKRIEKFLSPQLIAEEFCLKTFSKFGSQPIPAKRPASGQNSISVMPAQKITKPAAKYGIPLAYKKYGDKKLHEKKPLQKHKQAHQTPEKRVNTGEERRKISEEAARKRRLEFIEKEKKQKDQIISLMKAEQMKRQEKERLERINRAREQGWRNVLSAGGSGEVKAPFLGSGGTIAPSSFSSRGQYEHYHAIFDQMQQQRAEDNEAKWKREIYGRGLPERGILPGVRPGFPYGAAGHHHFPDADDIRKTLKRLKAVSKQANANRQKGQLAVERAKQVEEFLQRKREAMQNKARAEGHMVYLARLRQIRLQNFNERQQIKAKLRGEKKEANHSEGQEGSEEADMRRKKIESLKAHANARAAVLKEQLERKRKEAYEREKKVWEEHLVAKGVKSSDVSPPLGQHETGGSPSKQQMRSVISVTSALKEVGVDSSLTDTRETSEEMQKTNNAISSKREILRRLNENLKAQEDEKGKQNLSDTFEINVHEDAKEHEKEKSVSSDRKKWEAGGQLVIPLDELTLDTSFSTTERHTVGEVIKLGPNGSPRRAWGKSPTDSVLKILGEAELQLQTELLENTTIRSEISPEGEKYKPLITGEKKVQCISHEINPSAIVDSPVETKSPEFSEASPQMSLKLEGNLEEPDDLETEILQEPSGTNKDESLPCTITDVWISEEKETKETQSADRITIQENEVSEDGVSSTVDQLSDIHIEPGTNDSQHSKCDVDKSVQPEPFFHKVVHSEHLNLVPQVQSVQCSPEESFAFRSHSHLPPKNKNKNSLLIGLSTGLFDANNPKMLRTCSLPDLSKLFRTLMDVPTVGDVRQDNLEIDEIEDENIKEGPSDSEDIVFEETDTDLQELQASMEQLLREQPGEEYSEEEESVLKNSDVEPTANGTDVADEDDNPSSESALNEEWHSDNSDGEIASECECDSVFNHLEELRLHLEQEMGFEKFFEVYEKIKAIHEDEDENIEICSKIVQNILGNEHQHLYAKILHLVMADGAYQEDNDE
T10 sequence (P78368 whole entry): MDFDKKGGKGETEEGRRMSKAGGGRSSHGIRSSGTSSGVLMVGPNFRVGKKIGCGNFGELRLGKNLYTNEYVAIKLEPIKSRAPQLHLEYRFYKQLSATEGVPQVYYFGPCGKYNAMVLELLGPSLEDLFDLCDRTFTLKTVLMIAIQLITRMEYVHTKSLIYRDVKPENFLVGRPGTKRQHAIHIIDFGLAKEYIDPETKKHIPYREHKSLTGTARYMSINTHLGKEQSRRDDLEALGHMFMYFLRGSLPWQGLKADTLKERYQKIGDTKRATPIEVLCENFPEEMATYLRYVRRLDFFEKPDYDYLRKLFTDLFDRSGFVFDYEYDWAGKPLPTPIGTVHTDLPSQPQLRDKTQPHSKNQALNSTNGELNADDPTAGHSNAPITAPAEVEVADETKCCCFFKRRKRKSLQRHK
T28 sequence (O00506 whole entry, the tested form may be a part): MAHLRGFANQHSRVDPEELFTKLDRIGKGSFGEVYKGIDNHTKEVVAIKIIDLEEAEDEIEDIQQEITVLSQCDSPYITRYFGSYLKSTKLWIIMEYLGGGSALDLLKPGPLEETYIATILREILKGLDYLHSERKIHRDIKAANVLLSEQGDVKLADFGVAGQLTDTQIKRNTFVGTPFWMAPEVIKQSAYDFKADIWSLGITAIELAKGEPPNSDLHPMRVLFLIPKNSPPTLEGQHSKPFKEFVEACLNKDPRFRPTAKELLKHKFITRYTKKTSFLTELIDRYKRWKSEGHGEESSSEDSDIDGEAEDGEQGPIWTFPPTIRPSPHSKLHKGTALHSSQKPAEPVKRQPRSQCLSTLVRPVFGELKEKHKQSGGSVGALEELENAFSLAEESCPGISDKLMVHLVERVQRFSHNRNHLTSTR
T26 sequence (P04049 307-648 Y340D/Y341D limits assumed): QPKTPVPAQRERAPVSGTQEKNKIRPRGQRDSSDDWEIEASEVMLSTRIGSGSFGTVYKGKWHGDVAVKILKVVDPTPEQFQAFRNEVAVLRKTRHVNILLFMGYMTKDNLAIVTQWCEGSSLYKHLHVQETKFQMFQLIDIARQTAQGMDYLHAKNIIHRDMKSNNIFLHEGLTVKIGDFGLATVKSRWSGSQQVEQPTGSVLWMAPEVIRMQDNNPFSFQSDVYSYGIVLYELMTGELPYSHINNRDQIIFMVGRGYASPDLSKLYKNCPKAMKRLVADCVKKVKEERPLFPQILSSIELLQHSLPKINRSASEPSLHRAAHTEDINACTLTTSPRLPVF
T3 sequence (Q8IU85 whole entry): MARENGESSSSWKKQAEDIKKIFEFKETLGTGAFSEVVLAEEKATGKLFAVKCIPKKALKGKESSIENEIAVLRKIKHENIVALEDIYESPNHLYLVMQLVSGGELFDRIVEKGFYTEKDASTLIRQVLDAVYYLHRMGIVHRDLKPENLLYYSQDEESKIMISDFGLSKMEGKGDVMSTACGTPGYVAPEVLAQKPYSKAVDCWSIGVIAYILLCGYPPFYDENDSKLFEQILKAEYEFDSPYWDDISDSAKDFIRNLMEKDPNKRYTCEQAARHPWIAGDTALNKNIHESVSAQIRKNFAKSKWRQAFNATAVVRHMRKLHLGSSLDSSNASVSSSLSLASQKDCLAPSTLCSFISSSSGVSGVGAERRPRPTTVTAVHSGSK
T23 sequence (P05771 whole entry, the tested form may be a part): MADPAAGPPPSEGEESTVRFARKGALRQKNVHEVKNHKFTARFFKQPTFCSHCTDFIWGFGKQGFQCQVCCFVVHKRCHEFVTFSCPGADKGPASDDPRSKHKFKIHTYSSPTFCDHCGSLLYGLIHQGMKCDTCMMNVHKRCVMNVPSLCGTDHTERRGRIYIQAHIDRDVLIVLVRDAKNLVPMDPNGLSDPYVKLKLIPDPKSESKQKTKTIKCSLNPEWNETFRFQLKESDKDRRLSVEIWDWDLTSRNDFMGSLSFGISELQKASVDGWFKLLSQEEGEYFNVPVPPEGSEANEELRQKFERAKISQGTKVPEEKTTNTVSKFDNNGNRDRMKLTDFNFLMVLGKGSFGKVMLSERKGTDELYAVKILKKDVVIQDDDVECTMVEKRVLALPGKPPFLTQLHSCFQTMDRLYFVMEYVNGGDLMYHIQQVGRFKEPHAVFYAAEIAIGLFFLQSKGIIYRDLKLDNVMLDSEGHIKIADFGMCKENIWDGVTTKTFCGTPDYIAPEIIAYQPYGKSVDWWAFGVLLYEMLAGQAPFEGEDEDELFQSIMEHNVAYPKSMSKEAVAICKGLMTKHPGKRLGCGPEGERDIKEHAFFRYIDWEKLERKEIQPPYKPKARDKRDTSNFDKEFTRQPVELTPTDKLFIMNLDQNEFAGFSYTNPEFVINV
T6 sequence (Q00534 whole entry): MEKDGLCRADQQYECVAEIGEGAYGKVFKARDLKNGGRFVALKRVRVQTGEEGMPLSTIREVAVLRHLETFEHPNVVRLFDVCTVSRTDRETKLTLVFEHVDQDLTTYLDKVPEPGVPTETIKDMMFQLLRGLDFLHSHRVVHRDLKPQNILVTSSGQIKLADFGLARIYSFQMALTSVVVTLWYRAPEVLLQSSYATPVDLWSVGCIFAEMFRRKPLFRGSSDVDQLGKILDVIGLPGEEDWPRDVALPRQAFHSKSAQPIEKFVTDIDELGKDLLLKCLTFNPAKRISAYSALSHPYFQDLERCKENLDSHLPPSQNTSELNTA
T6 sequence (P24385 whole entry partner): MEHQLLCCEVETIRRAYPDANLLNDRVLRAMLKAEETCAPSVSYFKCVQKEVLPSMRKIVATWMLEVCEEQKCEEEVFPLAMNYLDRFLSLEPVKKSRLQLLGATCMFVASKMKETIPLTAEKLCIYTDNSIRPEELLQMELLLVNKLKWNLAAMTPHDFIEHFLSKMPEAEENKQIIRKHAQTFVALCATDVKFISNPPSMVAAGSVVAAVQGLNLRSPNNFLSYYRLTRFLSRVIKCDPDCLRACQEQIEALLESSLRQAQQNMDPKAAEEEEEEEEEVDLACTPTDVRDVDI
T7 sequence (Q00534 whole entry, the tested form may be a part): as the sequence (Q00534 whole entry) above
T7 sequence (P30281 whole entry partner, the tested form may be a part): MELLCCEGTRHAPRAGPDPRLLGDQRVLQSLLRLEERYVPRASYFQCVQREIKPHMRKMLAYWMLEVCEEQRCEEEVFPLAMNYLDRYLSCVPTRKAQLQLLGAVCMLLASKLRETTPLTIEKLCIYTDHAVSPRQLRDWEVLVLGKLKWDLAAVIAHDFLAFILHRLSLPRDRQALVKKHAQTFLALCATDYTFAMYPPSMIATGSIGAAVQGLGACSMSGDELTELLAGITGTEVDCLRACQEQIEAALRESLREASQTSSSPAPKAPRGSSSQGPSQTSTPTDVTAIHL

Structure (SMILES): C=CC(=O)Nc1ccc(C(=O)N2CC[C@@H](Nc3ncc(C#N)cn3)C2)cc1 [Compound 4, (R)-N-(4-(3-((5-cyanopyrimidin-2-yl)amino)pyrrolidine-1-carbonyl)phenyl)acrylamide]
- inhibition at 1 µM (ALK): 8%
- inhibition at 1 µM (BMPR1A): 2%
- inhibition at 1 µM (CAMKID): 0%
- inhibition at 1 µM (CDK13/CycK): 87%
- inhibition at 1 µM (CDK2/CycA2): 15%
- inhibition at 1 µM (CDK6/CycD1): 1%
- inhibition at 1 µM (CDK6/CycD3): 14%
- inhibition at 1 µM (CDK9/CycT1): 27%
- inhibition at 1 µM (CK1epsilon): -13%
- inhibition at 1 µM (CK1gamma2): -1%
- inhibition at 1 µM (CK1gamma3): -8%
- inhibition at 1 µM (DNAPK): 2%
- inhibition at 1 µM (DYRK3): -3%
- inhibition at 1 µM (EPHB2): 1%
- inhibition at 1 µM (GRK3): 5%
- inhibition at 1 µM (LYN): -8%
- inhibition at 1 µM (MAP4K5): 0%
- inhibition at 1 µM (MKNK1): -2%
- inhibition at 1 µM (NEK1): 0%
- inhibition at 1 µM (NIK): -2%
- inhibition at 1 µM (PAK4): -3%
- inhibition at 1 µM (PKA): 13%
- inhibition at 1 µM (PKCbeta1): 4%
- inhibition at 1 µM (PKCtheta): 1%
- inhibition at 1 µM (PRK2): 2%
- inhibition at 1 µM (RAF1 YDYD): 9%
- inhibition at 1 µM (SLK): 21%
- inhibition at 1 µM (STK25): 7%
- inhibition at 1 µM (TAOK3): 6%
- inhibition at 1 µM (ZAK): -4%
